Experimental data reported in patent US9511058B2, “Methods for using carboxamide, sulfonamide and amine compounds” (Rigel Pharmaceuticals, Inc., priority 2010, dated 2016).

target: AMPK; assay: AMPK activation, enzyme-linked immunosorbent assay; format: biochemical; details: compounds of Table 1 (Table 6)

O=C(NC1CCN(Cc2cccnc2)CC1)c1cncc(OC2CCN(c3ccc(C(F)(F)F)cc3)CC2)c1 [1-18, N-(1-(pyridin-3-ylmethyl)piperidin-4-yl)-5-(1-(4-(trifluoromethyl)phenyl)piperidin-4-yloxy)nicotinamide] and O=C(NC1CCN(Cc2cccnc2)CC1)c1sc2cc(OC3CCN(c4ccc(C(F)(F)F)cc4)CC3)ccc2c1Cl [1-152, 3-chloro-N-(1-(pyridin-3-ylmethyl)piperidin-4-yl)-6-(1-(4-(trifluoromethyl)phenyl)piperidin-4-yloxy)benzo[b]thiophene-2-carboxamide] cannot be ordered by EC50: less than 100 nM for the first, less than 100 nM for the second.

Compared with CN(C(=O)c1cc2cc(OC3CCN(c4ccc(C(F)(F)F)cc4)CC3)ccc2o1)C1CCN(C(=O)OC(C)(C)C)CC1 [1-102, tert-butyl 4-(N-methyl-5-(1-(4-(trifluoromethyl)phenyl)piperidin-4-yloxy)benzofuran-2-carboxamido)piperidine-1-carboxylate], CN(C(=O)c1cc2cc(OC3CCN(c4ccc(C(F)(F)F)cc4)CC3)ccc2o1)C1CCN(Cc2cccc(C#N)c2)CC1 [1-110, N-(1-(3-cyanobenzyl)piperidin-4-yl)-N-methyl-5-(1-(4-(trifluoromethyl)phenyl)piperidin-4-yloxy)benzofuran-2-carboxamide] is lower in EC50: 1000 to 5000 nM for the first, less than 100 nM for the second. The second is the more potent here.

First: O=C(NC1CN(Cc2ccncc2)C1)c1ccc(OC2CCN(c3ccc(C(F)(F)F)cc3)CC2)cn1 [1-42, N-(1-(pyridin-4-ylmethyl)azetidin-3-yl)-5-(1-(4-(trifluoromethyl)phenyl)piperidin-4-yloxy)picolinamide]
Second: O=C(N[C@@H]1CCN(Cc2ccncc2)C1)c1cc2cc(OC3CCN(c4ccc(C(F)(F)F)cc4)CC3)ccc2o1 [1-122, (R)-N-(1-(pyridin-4-ylmethyl)pyrrolidin-3-yl)-5-(1-(4-(trifluoromethyl)phenyl)piperidin-4-yloxy)benzofuran-2-carboxamide]
The EC50 of the first is higher: 1000 to 5000 nM for the first, 100 to 500 nM for the second.

First: CC(C)(C)OC(=O)N1CC[C@H](NC(=O)c2cc3cc(OC4CCN(Cc5ccc(Cl)cc5)CC4)ccc3o2)C1 [1-127, (S)-tert-butyl 3-(5-(1-(4-chlorobenzyl)piperidin-4-yloxy)benzofuran-2-carboxamido)pyrrolidine-1-carboxylate]
Second: N#Cc1ccc(CN2CCC(Oc3ccc4oc(C(=O)NC5CCN(Cc6ccccc6)CC5)cc4c3)CC2)cc1 [1-114, N-(1-benzylpiperidin-4-yl)-5-(1-(4-cyanobenzyl)piperidin-4-yloxy)benzofuran-2-carboxamide]
The EC50 of the first is higher: 1000 to 5000 nM for the first, 100 to 500 nM for the second. The second is the more potent here.

First: O=C(NC1CCN(Cc2ccncc2)CC1)c1sc2cc(OC3CCN(c4ccc(C(F)(F)F)cc4)CC3)ccc2c1Cl [1-151, 3-chloro-N-(1-(pyridin-4-ylmethyl)piperidin-4-yl)-6-(1-(4-(trifluoromethyl)phenyl)piperidin-4-yloxy)benzo[b]thiophene-2-carboxamide]
Second: CC(C)(C)OC(=O)N1CCC(NC(=O)c2sc3cc(OC4CCN(c5ccc(C(F)(F)F)cc5)CC4)ccc3c2Cl)CC1 [1-147, tert-butyl 4-(3-chloro-6-(1-(4-(trifluoromethyl)phenyl)piperidin-4-yloxy)benzo[b]thiophene-2-carboxamido)piperidine-1-carboxylate]
The EC50 of the first is lower: less than 100 nM for the first, 1000 to 5000 nM for the second.

N#Cc1ccc(N2CCC(Oc3ccc(S(=O)(=O)NC4CCN(Cc5ccncc5)CC4)cn3)CC2)cc1 [1-52, N-(1-(pyridin-4-ylmethyl)piperidin-4-yl)-6-(1-(4-cyanophenyl)piperidin-4-yloxy)pyridine-3-sulfonamide] and O=S(=O)(NC1CCN(Cc2ccncc2)CC1)c1ccc(OC2CCN(c3ccc(C(F)(F)F)cc3)CC2)nc1 [1-51, N-(1-(pyridin-4-ylmethyl)piperidin-4-yl)-6-(1-(4-(trifluoromethyl)phenyl)piperidin-4-yloxy)pyridine-3-sulfonamide] fall in the same range of EC50: 100 to 500 nM for the first, 100 to 500 nM for the second.

Work on O=C(NC1CCN(Cc2ccc(F)cc2)CC1)c1ccnc(OC2CCN(c3ccc(C(F)(F)F)cc3)CC2)c1 [1-22, N-(1-(4-fluorobenzyl)piperidin-4-yl)-2-(1-(4-(trifluoromethyl)phenyl)piperidin-4-yloxy)isonicotinamide] yielded an EC50 of 1000 to 5000 nM.

same assay, conditions: compounds of Table 2 (Table 7)

Work on O=C(NC1CCN(Cc2ccncc2)CC1)c1ccc2[nH]c3c(c2c1)CN(Cc1ccc(C(F)(F)F)cc1)CC3 [2-50, N-(1-(pyridin-4-ylmethyl)piperidin-4-yl)-2-(4-(trifluoromethyl)benzyl)-2,3,4,5-tetrahydro-1H-pyrido[4,3-b]indole-8-carboxamide] yielded an EC50 of less than 500 nM.

same assay, conditions: compounds of Table 3 (Table 8)

N#Cc1ccc(CN2CCC(NC(=O)c3cnc(OC4CCN(Cc5ccc(C(F)(F)F)cc5)CC4)s3)CC2)cc1 [3-25, N-(1-(4-cyanobenzyl)piperidin-4-yl)-2-(1-(4-(trifluoromethyl)benzyl)piperidin-4-yloxy)thiazole-5-carboxamide] and N#Cc1ccc(CN2CCC(NC(=O)c3cnc(OC4CCN(c5ccc(C(F)(F)F)cc5)CC4)cn3)CC2)cc1 [3-22, N-(1-(4-cyanobenzyl)piperidin-4-yl)-5-(1-(4-(trifluoromethyl)phenyl)piperidin-4-yloxy)pyrazine-2-carboxamide] cannot be ordered by EC50: less than 100 nM for the first, less than 100 nM for the second.

First: N#Cc1ccc(CN2CC3CC2CN3C(=O)c2nc3ccc(OC4CCN(c5ccc(C(F)(F)F)cc5)CC4)cc3o2)cc1 (centres unmarked) [3-10, 4-((5-(6-(1-(4-(trifluoromethyl)phenyl)piperidin-4-yloxy)benzo[d]oxazole-2-carbonyl)-2,5-diazabicyclo[2.2.1]heptan-2-yl)methyl)benzonitrile]
Second: O=C(NC1CCN(Cc2ccncc2)CC1)c1cnc(OC2CCN(c3ccc(C(F)(F)F)cc3)CC2)cn1 [3-21, N-(1-(pyridin-4-ylmethyl)piperidin-4-yl)-5-(1-(4-(trifluoromethyl)phenyl)piperidin-4-yloxy)pyrazine-2-carboxamide]
The EC50 of the first is higher: 100 to 1000 nM for the first, less than 100 nM for the second.

same assay, conditions: compounds of Table 4 (Table 9)

In the case of O=C(N[C@H]1CCN(Cc2ccncc2)C1)c1ccc(C(=O)N2CCN(c3ccc(Cl)cc3)CC2)cn1 [4-5, (S)-5-(4-(4-chlorophenyl)piperazine-1-carbonyl)-N-(1-(pyridin-4-ylmethyl)pyrrolidin-3-yl)picolinamide], the EC50 is reported as 1000 to 5000 nM.

same assay, conditions: compounds of Table 5 (Table 10)

Cc1ccc(CN2CCC(Oc3ccc(C(=O)NC4CCN(Cc5ccc(F)cc5)CC4)cc3Cl)CC2)cc1 [5-68, 3-chloro-N-(1-(4-fluorobenzyl)piperidin-4-yl)-4-(1-(4-methylbenzyl)piperidin-4-yloxy)benzamide] and O=C(NC1CCN(Cc2ccc(F)cc2)CC1)c1ccc(OC2CCN(Cc3ccc(Cl)cc3)CC2)c(Cl)c1 [5-66, 3-chloro-4-(1-(4-chlorobenzyl)piperidin-4-yloxy)-N-(1-(4-fluorobenzyl)piperidin-4-yl)benzamide] cannot be ordered by EC50: less than 1000 nM for the first, less than 1000 nM for the second.

CC(C)(C)c1ccc(CN2CCC(Oc3ccc(C(=O)NC4CCN(Cc5ccccc5)CC4)cc3Cl)CC2)cc1 [5-16, N-(1-benzylpiperidin-4-yl)-4-(1-(4-tert-butylbenzyl)piperidin-4-yloxy)-3-chlorobenzamide] and O=C(NC1CCN(Cc2ccccc2)CC1)c1ccc(OC2CCN(Cc3ccc(F)cc3)CC2)c(Cl)c1 [5-19, N-(1-benzylpiperidin-4-yl)-3-chloro-4-(1-(4-fluorobenzyl)piperidin-4-yloxy)benzamide] cannot be ordered by EC50: less than 1000 nM for the first, less than 1000 nM for the second.

O=C(NC1CCN(Cc2ccccn2)CC1)c1ccc(OC2CCN(c3ccc(C(F)(F)F)cc3)CC2)c(F)c1 [5-32, 3-fluoro-N-(1-(pyridin-2-ylmethyl)piperidin-4-yl)-4-(1-(4-(trifluoromethyl)phenyl)piperidin-4-yloxy)benzamide] and O=C(NC1CCN(Cc2ccncc2)CC1)c1cccc(OC2CCN(c3ccc(C(F)(F)F)cc3)CC2)c1 [5-87, N-(1-(pyridin-4-ylmethyl)piperidin-4-yl)-3-(1-(4-(trifluoromethyl)phenyl)piperidin-4-yloxy)benzamide] cannot be ordered by EC50: less than 1000 nM for the first, less than 1000 nM for the second.

First: COc1cc(C(=O)NC2CCN(Cc3ccccc3)CC2)ccc1OC1CCN(c2cccs2)CC1 [5-8, N-(1-benzylpiperidin-4-yl)-3-methoxy-4-(1-(thiophen-2-yl)piperidin-4-yloxy)benzamide]
Second: COc1ccc(CN2CCC(Oc3ccc(C(=O)NC4CCN(Cc5ccccc5)CC4)cc3Cl)CC2)cc1 [5-1, N-(1-benzylpiperidin-4-yl)-3-chloro-4-(1-(4-methoxybenzyl)piperidin-4-yloxy)benzamide]
The EC50 of the first is higher: 1000 to 10000 nM for the first, less than 1000 nM for the second.

O=C(NC1CCN(Cc2ccc(Cl)cc2)CC1)c1ccc(OC2CCN(Cc3ccc(Cl)cc3)CC2)c(F)c1 [5-72, N-(1-(4-chlorobenzyl)piperidin-4-yl)-4-(1-(4-chlorobenzyl)piperidin-4-yloxy)-3-fluorobenzamide] and O=C(NC1CCN(Cc2ccccc2)CC1)c1ccc(OC2CCN(Cc3ccc(Cl)cc3)CC2)c(Cl)c1 [5-65, N-(1-benzylpiperidin-4-yl)-3-chloro-4-(1-(4-chlorobenzyl)piperidin-4-yloxy)benzamide] cannot be ordered by EC50: less than 1000 nM for the first, less than 1000 nM for the second.

O=C(NC1CCN(Cc2ccccc2)CC1)c1ccc(OC2CCN(Cc3ccncc3)CC2)c(F)c1 [5-37, N-(1-benzylpiperidin-4-yl)-3-fluoro-4-(1-(pyridin-4-ylmethyl)piperidin-4-yloxy)benzamide] and O=C(NC1CCN(Cc2ccccc2)CC1)c1ccc(OC2CCN(Cc3ccc(F)c(F)c3)CC2)c(Cl)c1 [5-74, N-(1-benzylpiperidin-4-yl)-3-chloro-4-(1-(3,4-difluorobenzyl)piperidin-4-yloxy)benzamide] cannot be ordered by EC50: less than 1000 nM for the first, less than 1000 nM for the second.

Compared with O=C(NC1CCN(Cc2ccccc2)CC1)c1cccc(OC2CCN(Cc3ccc(C(F)(F)F)cc3)CC2)c1 [5-52, N-(1-benzylpiperidin-4-yl)-3-(1-(4-(trifluoromethyl)benzyl)piperidin-4-yloxy)benzamide], N#Cc1ccc(CN2CCC(Oc3ccc(C(=O)NC4CCN(Cc5ccccn5)CC4)cc3)CC2)cc1 [5-85, 4-(1-(4-cyanobenzyl)piperidin-4-yloxy)-N-(1-(pyridin-2-ylmethyl)piperidin-4-yl)benzamide] is lower in EC50: 1000 to 10000 nM for the first, less than 1000 nM for the second. The second is the more potent here.

First: CC(C)(C)C(=O)N1CCC(Oc2ccc(C(=O)NC3CCN(Cc4ccccc4)CC3)cc2Cl)CC1 [5-91, N-(1-benzylpiperidin-4-yl)-3-chloro-4-(1-pivaloylpiperidin-4-yloxy)benzamide]
Second: CC(C)(C)OC(=O)N1CCC(Oc2ccc(C(=O)NC3CCN(Cc4ccccc4)CC3)cc2F)CC1 [5-92, tert-butyl 4-(4-(1-benzylpiperidin-4-ylcarbamoyl)-2-fluorophenoxy)piperidine-1-carboxylate]
The EC50 of the first is lower: less than 1000 nM for the first, 1000 to 10000 nM for the second.
